The results in this text go back to ChEMBL document CHEMBL3045651, “Nymania-3: a bioactive triterpenoid from Dysoxylum malabaricum” (1999).

Structures are written as SMILES.

Format in all cases: functional
The subject of test [1] is Olepa ricini. The test can be described thus: Antifeedant activity against Olepa ricini fed on compound pre-treated castor leaves assessed as insect mortality at 1 ug/cm2 by dual choice leaf disk method (reference value: 4%). The note with it: foliar.
The test system of test [2] is Olepa ricini. The test can be described thus: Antifeedant activity against Olepa ricini fed on compound pre-treated castor leaves assessed as pupal weight at 1 ug/cm2 by dual choice leaf disk method (reference value: 476 +/- 10.6 mg).
For test [3], the system named is Olepa ricini. Kind of test: Antifeedant activity against Olepa ricini fed on compound pre-treated castor leaves assessed as duration of development of pupa at 1 ug/cm2 by dual choice leaf disk method (reference value: 7.5 +/- 0.3 days).
For test [4], the system named is Olepa ricini. The test can be described thus: Antifeedant activity against Olepa ricini fed on compound pre-treated castor leaves assessed as duration of development of fifth-instar larvae at 1 ug/cm2 by dual choice leaf disk method (reference value: 4.5 +/- 0.4 days).
For test [5], the system named is Olepa ricini. The test can be described thus: Antifeedant activity against Olepa ricini fed on compound pre-treated castor leaves assessed as duration of development of fourth-instar larvae at 1 ug/cm2 by dual choice leaf disk method (reference value: 7.5 +/- 0.2 days).
The test system of test [6] is Olepa ricini. Kind of test: Antifeedant activity against Olepa ricini fed on compound pre-treated castor leaves assessed as duration of development of third-instar larvae at 1 ug/cm2 by dual choice leaf disk method (reference value: 4.5 +/- 0.7 days).
Test [7] deals with Olepa ricini. Kind of test: Antifeedant activity against Olepa ricini fed on compound pre-treated castor leaves assessed as percent feeding index at 50 ug/cm2 by dual choice leaf disk method.
In test [8] the test system is Olepa ricini. Kind of test: Antifeedant activity against Olepa ricini fed on compound pre-treated castor leaves assessed as percent feeding index at 10 ug/cm2 by dual choice leaf disk method.
Test [9] deals with Olepa ricini. Kind of test: Antifeedant activity against Olepa ricini fed on compound pre-treated castor leaves assessed as percent feeding index at 5 ug/cm2 by dual choice leaf disk method.
The subject of test [10] is Olepa ricini. The test can be described thus: Antifeedant activity against Olepa ricini fed on compound pre-treated castor leaves assessed as percent feeding index at 1 ug/cm2 by dual choice leaf disk method.
In test [11] the test system is Olepa ricini. The test can be described thus: Antifeedant activity against Olepa ricini fed on compound pre-treated castor leaves assessed as insect mortality at 0.5 ug/cm2 by dual choice leaf disk method (reference value: 4%). The note with it: foliar.
Test [12] relates to Olepa ricini. The test can be described thus: Antifeedant activity against Olepa ricini fed on compound pre-treated castor leaves assessed as pupal weight at 0.5 ug/cm2 by dual choice leaf disk method (reference value: 476 +/- 10.6 mg).
The test system of test [13] is Olepa ricini. The test can be described thus: Antifeedant activity against Olepa ricini fed on compound pre-treated castor leaves assessed as duration of development of pupa at 0.5 ug/cm2 by dual choice leaf disk method (reference value: 7.5 +/- 0.3 days).
Test [14] concerns Olepa ricini. Kind of test: Antifeedant activity against Olepa ricini fed on compound pre-treated castor leaves assessed as duration of development of fifth-instar larvae at 0.5 ug/cm2 by dual choice leaf disk method (reference value: 4.5 +/- 0.4 days).
For test [15], the system named is Olepa ricini. Kind of test: Antifeedant activity against Olepa ricini fed on compound pre-treated castor leaves assessed as duration of development of fourth-instar larvae at 0.5 ug/cm2 by dual choice leaf disk method (reference value: 7.5 +/- 0.2 days).
Test [16] has as its system Olepa ricini. The test can be described thus: Antifeedant activity against Olepa ricini fed on compound pre-treated castor leaves assessed as duration of development of third-instar larvae at 0.5 ug/cm2 by dual choice leaf disk method (reference value: 4.5 +/- 0.7 days).

In the case of `C=C1[C@@H]([C@@]2(C)C=CC(=O)OC(C)(C)[C@@H]2CC(=O)OC)[C@@H](OC(C)=O)[C@H](OC(C)=O)[C@@]2(C)[C@@H](c3ccoc3)C[C@H]3O[C@]132` [NYMANIA], in test [1], the mortality at 1 µg/cm2 came out at 16%. The Activity in [2] was 428 mg. In addition, the Time turned out to be 7.4 days in test [3], 5.3 days in test [4], 8.8 days in test [5] and 6.8 days in [6]. The FI is 19.5% in test [7], 23.4% in test [8], 30% in test [9] and 33.5% in [10].

On to `C/C=C(\C)C(=O)O[C@H]1C[C@@H](OC(C)=O)[C@@]2(C(=O)OC)CO[C@H]3[C@@H](O)[C@@](C)([C@]45O[C@@]4(C)[C@H]4C[C@@H]5O[C@@H]5OC=C[C@@]54O)[C@H]4[C@]1(CO[C@]4(O)C(=O)OC)[C@@H]32` [AZADIRACTIN], for which the mortality at 0.5 µg/cm2 in test [11] worked out at 16%. Further, the Activity in test [12] was 344 mg. For the same compound, the Time in [13] was 7.4 days; in test [14], 5.7 days; in [15], 8.6 days; in test [16], 7 days. Moreover, the FI in test [7] came out at 10%; in [8], 12.5%; in test [9], 15.6%; in [10], 20.8%.
